In the supplement of paper PMC10307832:

Key:
Assay in all cases: relative viability (nuclei count vs DMSO), 5 days (fraction); higher = more cells survive
[1] = compound: CC(=O)c1c(C)c2cnc(Nc3ccc(N4CCNCC4)cn3)nc2n(C2CCCC2)c1=O [Palbociclib] + O=C(c1cc(Cc2n[nH]c(=O)c3ccccc23)ccc1F)N1CCN(C(=O)C2CC2)CC1 [Olaparib] (partner 8 µM)
Outline: (§1)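 Lung cancer cell lines were pin-tool dosed in 1536-well plates on the day after seeding, with either a lone drug or a fixed anchor-drug dose plus five library-drug doses (not always all listed) in √10 steps. Nuclei were counted on 4× images after 5 days. Relative viability is the ratio of treated-well to vehicle-well nuclei counts, with each value a median of duplicate plates.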

[2] = compound: CC(=O)c1c(C)c2cnc(Nc3ccc(N4CCNCC4)cn3)nc2n(C2CCCC2)c1=O [Palbociclib] + Nc1nc2[nH]cc(CCc3ccc(C(=O)N[C@@H](CCC(=O)O)C(=O)O)cc3)c2c(=O)[nH]1 [Pemetrexed] (partner 0.2 µM)
Outline: as §1

[3] = compound: CC(=O)c1c(C)c2cnc(Nc3ccc(N4CCNCC4)cn3)nc2n(C2CCCC2)c1=O [Palbociclib] + COc1cccc2cc(-c3nc([C@H]4CC[C@H](C(=O)O)CC4)n4ncnc(N)c34)[nH]c12 [OSI-027] (partner 0.5 µM)
Outline: as §1

[4] = compound: CC(=O)c1c(C)c2cnc(Nc3ccc(N4CCNCC4)cn3)nc2n(C2CCCC2)c1=O [Palbociclib] + C[C@]1(O)C[C@@H](c2nc(-c3ccc4ccc(-c5ccccc5)nc4c3)c3c(N)nccn32)C1 [Linsitinib] (partner 1 µM)
Outline: as §1

Cell Line | relative viability ([1]; first compound 0.01 µM) | relative viability ([1]; first compound 0.1 µM) | relative viability ([1]; first compound 0.3162 µM) | relative viability ([1]; first compound 1 µM) | relative viability ([2]; first compound 0.01 µM) | relative viability ([2]; first compound 0.1 µM) | relative viability ([2]; first compound 0.3162 µM) | relative viability ([2]; first compound 1 µM) | relative viability ([3]; first compound 0.01 µM) | relative viability ([3]; first compound 0.03162 µM) | relative viability ([3]; first compound 0.1 µM) | relative viability ([3]; first compound 0.3162 µM) | relative viability ([3]; first compound 1 µM) | relative viability ([4]; first compound 0.01 µM) | relative viability ([4]; first compound 0.1 µM) | relative viability ([4]; first compound 0.3162 µM) | relative viability ([4]; first compound 1 µM) | relative viability ([1]; first compound 0.03162 µM) | relative viability ([2]; first compound 0.03162 µM) | relative viability ([4]; first compound 0.03162 µM)
LCLC-97TM1 | 0.326 | 0.308 | 0.311 | 0.262 | 0.201 | 0.168 | 0.156 | 0.167 | 0.586 | 0.353 | 0.349 | 0.219 | 0.221 | 0.185 | 0.167 | 0.165 | 0.158 | – | – | –
LCLC-103H | 0.701 | 0.731 | 0.669 | 0.584 | 0.432 | 0.484 | 0.443 | 0.412 | 0.432 | 0.368 | 0.406 | 0.358 | 0.302 | 1.04 | 0.918 | 1 | 0.826 | 0.709 | 0.495 | 1.15
LK-2 | 0.896 | 0.625 | 0.585 | 0.556 | 0.283 | 0.205 | 0.205 | 0.238 | 0.208 | – | 0.182 | 0.212 | 0.162 | 0.521 | 0.468 | 0.434 | 0.608 | 0.656 | 0.175 | 0.486
LOU-NH91 | 0.959 | 0.677 | 0.664 | 0.559 | 0.384 | 0.462 | 0.492 | 0.439 | 0.706 | 0.587 | 0.46 | 0.505 | 0.44 | 1.02 | 0.668 | 0.6 | 0.605 | 0.696 | 0.396 | 0.79
LU99A | 0.24 | 0.281 | 0.26 | 0.271 | 0.176 | 0.158 | 0.171 | 0.19 | 0.305 | 0.274 | 0.221 | 0.238 | 0.223 | 0.587 | 0.454 | 0.355 | 0.327 | – | – | 0.46
LXF-289 | 1.1 | 0.951 | 0.969 | 0.865 | 0.887 | 0.793 | 0.793 | 0.681 | 0.815 | 0.411 | 0.697 | 0.734 | 0.561 | 0.914 | 0.99 | 0.88 | 0.734 | 1.08 | 0.733 | 0.959
NCI-H23 | 0.375 | 0.325 | 0.305 | 0.289 | 0.596 | 0.492 | 0.67 | 0.443 | 0.576 | – | 0.502 | 0.463 | 0.408 | 0.794 | 0.509 | 0.46 | 0.398 | 0.311 | 0.694 | –
NCI-H322M | 0.762 | 0.702 | 0.599 | 0.445 | 0.604 | 0.651 | 0.573 | 0.362 | 0.553 | 0.499 | 0.385 | 0.435 | 0.446 | 0.892 | 0.718 | 0.78 | 0.638 | 0.709 | 0.499 | 0.836
NCI-H358 | 0.571 | 0.452 | 0.292 | 0.136 | 0.167 | 0.166 | 0.186 | 0.135 | 0.807 | 0.62 | 0.501 | 0.455 | 0.138 | 0.673 | 0.354 | 0.247 | 0.229 | 0.486 | 0.163 | 0.559
NCI-H441 | 0.657 | 0.45 | 0.452 | 0.298 | 0.276 | 0.258 | 0.236 | 0.257 | 0.56 | 0.394 | 0.407 | 0.405 | 0.213 | 0.652 | 0.483 | 0.487 | 0.275 | 0.449 | 0.266 | 0.383
NCI-H460 | 0.433 | 0.378 | 0.323 | 0.165 | 0.0576 | 0.0631 | 0.0663 | 0.057 | 0.708 | 0.531 | 0.366 | 0.376 | 0.159 | 0.903 | 0.483 | 0.288 | 0.117 | 0.289 | 0.0539 | 0.529
NCI-H520 | 0.289 | 0.255 | 0.199 | 0.173 | 0.636 | 0.554 | 0.331 | 0.267 | 0.21 | 0.228 | 0.203 | 0.236 | 0.212 | 1.06 | 0.661 | 0.67 | 0.392 | 0.35 | 0.573 | 0.721
NCI-H596 | 0.708 | 0.724 | 0.707 | 0.68 | 0.514 | 0.514 | 0.52 | 0.497 | 0.681 | – | 0.761 | 0.649 | 0.809 | 1.12 | 0.95 | 1.02 | 1.03 | 0.809 | 0.617 | 0.914
NCI-H647 | 0.809 | 0.502 | 0.513 | 0.442 | 0.167 | 0.2 | 0.179 | 0.188 | 0.788 | 0.496 | 0.652 | 0.636 | 0.362 | 1.2 | 0.89 | 0.941 | 0.712 | 0.488 | 0.171 | 1.01
NCI-H650 | 0.44 | 0.318 | 0.354 | 0.246 | 0.946 | 0.7 | 0.725 | 0.483 | 0.53 | 0.309 | 0.393 | 0.376 | 0.331 | 0.866 | 0.646 | 0.635 | 0.436 | – | – | –
NCI-H661 | 0.731 | 0.583 | 0.467 | 0.44 | 0.878 | 0.645 | 0.571 | 0.416 | 0.77 | 0.552 | 0.464 | 0.354 | 0.313 | 0.547 | 0.46 | 0.421 | 0.351 | 0.636 | 0.792 | 0.529
NCI-H838 | 0.812 | 0.605 | 0.46 | 0.263 | 0.354 | 0.242 | 0.29 | 0.18 | 0.318 | 0.348 | 0.308 | 0.317 | 0.185 | 1.07 | 0.708 | 0.82 | 0.494 | 0.64 | 0.234 | 0.96
NCI-H1355 | 0.796 | 0.673 | 0.65 | 0.621 | 1.13 | 0.947 | 0.912 | 0.739 | 0.45 | 0.359 | 0.33 | 0.282 | 0.24 | 0.807 | 0.754 | 0.687 | 0.549 | 0.734 | 0.548 | –
NCI-H1395 | 0.429 | 0.421 | 0.477 | 0.514 | 0.797 | 0.786 | 0.838 | 0.65 | 0.64 | 0.55 | 0.536 | 0.54 | 0.415 | 1.35 | 0.737 | 0.887 | 0.726 | 0.423 | 0.812 | 0.968
NCI-H1437 | 0.64 | 0.564 | 0.489 | 0.369 | 0.33 | 0.339 | 0.33 | 0.269 | 0.747 | 0.734 | 0.711 | 0.65 | 0.291 | 1.02 | 0.872 | 0.847 | 0.408 | 0.599 | 0.338 | 1.02
NCI-H1651 | 0.177 | 0.225 | 0.203 | 0.206 | 0.572 | 0.562 | 0.511 | 0.394 | 0.663 | 0.639 | 0.706 | 0.663 | 0.334 | 0.972 | 1.01 | 0.933 | 0.698 | 0.196 | 0.563 | 0.913
NCI-H1666 | 0.769 | 0.705 | 0.664 | 0.708 | 0.802 | 0.798 | 0.772 | 0.638 | 0.831 | 0.672 | 0.682 | 0.747 | 0.471 | 0.868 | 0.634 | 0.619 | 0.37 | 0.708 | 0.822 | 0.751
NCI-H1734 | 0.616 | 0.566 | 0.494 | 0.407 | 0.423 | 0.404 | 0.407 | 0.4 | 0.684 | 0.42 | 0.466 | 0.413 | 0.329 | 0.918 | 0.789 | 0.641 | 0.564 | 0.596 | 0.466 | 0.765
NCI-H1755 | 0.875 | 0.812 | 0.788 | 0.664 | 0.429 | 0.385 | 0.467 | 0.397 | 0.677 | 0.496 | 0.555 | 0.633 | 0.391 | 1.01 | 0.873 | 0.814 | 0.711 | 0.841 | 0.394 | 0.987
NCI-H1792 | 0.476 | 0.384 | 0.348 | 0.222 | 0.984 | 0.438 | 0.427 | 0.264 | 0.821 | 0.688 | 0.649 | 0.537 | 0.485 | 0.52 | 0.397 | 0.371 | 0.25 | 0.266 | 0.557 | 0.435
NCI-H1793 | 1.03 | 0.832 | 0.81 | 0.501 | 0.975 | 0.676 | 0.617 | 0.339 | 0.262 | – | 0.238 | 0.223 | 0.186 | 0.722 | 0.647 | 0.583 | 0.518 | 0.628 | 0.653 | 0.681
NCI-H1915 | 0.244 | 0.257 | 0.258 | 0.244 | 0.494 | 0.446 | 0.413 | 0.331 | 0.628 | 0.426 | 0.511 | 0.513 | 0.407 | 1.11 | 1.07 | 1.01 | 0.947 | – | – | 1.04
